Drawing on ChEMBL document CHEMBL1909046, “DrugMatrix in vitro pharmacology data”, this text covers IC50 and Ki for 16 compounds.

The structures appear in SMILES notation. pIC50, pKi: −log10 of the molar value.

Assay [1] deals with Mitogen-activated protein kinase 1 (Homo sapiens, UniProt P28482). Put plainly: DRUGMATRIX: Protein Serine/Threonine Kinase, ERK2 enzyme inhibition (substrate: Myelin Basic Protein). Also noted: species or system Escherichia coli. The settings on record: Not Active = under 50% inhibition at 10 µM; for pIC50: read-out: IC50.
The target in assay [2] is Matrix metalloproteinase-9 (Homo sapiens, UniProt P14780). Put plainly: biochemical. Type of assay: cell-based. The settings on record: for pIC50: read-out: IC50.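 On all read-outs here: inhibition of isolated MMP-9 enzyme activity toward a synthetic peptide substrate, from the DrugMatrix protease screening panel; in other assays of this panel Not Active means under 50% inhibition at 10 µM.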
Assay [3] deals with T1, C-C chemokine receptor type 4 (Homo sapiens, UniProt P51679).
T1 sequence (P51679 whole entry): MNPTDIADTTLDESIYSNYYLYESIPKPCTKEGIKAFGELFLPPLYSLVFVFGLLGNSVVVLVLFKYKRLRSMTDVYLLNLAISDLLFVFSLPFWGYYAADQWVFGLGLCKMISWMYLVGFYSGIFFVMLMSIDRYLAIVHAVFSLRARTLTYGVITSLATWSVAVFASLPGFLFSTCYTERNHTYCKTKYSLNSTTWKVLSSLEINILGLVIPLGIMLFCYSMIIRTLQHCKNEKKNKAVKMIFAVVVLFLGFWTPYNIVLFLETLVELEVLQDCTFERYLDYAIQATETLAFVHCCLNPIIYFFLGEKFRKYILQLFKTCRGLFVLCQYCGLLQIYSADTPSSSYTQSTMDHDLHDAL
In kind it is cell membranes, Membrane. The settings on record: chem-1.

The target in assay [4] is T2, Adenosine receptor A1 (Homo sapiens, UniProt P30542).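 Further: radioligand binding assay at the adenosine A1 receptor, with DPCPX serving as the labelled ligand; in other assays of this panel Not Active means under 50% inhibition at 10 µM.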
T2 sequence (P30542 whole entry): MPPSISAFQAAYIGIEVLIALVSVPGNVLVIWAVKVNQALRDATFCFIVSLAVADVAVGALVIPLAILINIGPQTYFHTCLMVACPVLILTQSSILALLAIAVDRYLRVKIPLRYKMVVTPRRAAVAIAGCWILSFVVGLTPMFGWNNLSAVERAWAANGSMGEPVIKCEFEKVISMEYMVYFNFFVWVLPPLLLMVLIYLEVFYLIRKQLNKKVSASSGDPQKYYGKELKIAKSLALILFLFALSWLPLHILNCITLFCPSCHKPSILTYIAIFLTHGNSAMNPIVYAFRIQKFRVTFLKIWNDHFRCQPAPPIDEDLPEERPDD
Type of assay: cell membranes, CHO, Membrane. The settings on record: cho.

The target in assay [5] is T3, Angiotensin-converting enzyme (Oryctolagus cuniculus, UniProt P12822).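 Further: enzymatic inhibition of angiotensin-converting enzyme measured with FAPGG as the substrate; in other assays of this panel Not Active means under 50% inhibition at 10 µM.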
T3 sequence (P12822 whole entry): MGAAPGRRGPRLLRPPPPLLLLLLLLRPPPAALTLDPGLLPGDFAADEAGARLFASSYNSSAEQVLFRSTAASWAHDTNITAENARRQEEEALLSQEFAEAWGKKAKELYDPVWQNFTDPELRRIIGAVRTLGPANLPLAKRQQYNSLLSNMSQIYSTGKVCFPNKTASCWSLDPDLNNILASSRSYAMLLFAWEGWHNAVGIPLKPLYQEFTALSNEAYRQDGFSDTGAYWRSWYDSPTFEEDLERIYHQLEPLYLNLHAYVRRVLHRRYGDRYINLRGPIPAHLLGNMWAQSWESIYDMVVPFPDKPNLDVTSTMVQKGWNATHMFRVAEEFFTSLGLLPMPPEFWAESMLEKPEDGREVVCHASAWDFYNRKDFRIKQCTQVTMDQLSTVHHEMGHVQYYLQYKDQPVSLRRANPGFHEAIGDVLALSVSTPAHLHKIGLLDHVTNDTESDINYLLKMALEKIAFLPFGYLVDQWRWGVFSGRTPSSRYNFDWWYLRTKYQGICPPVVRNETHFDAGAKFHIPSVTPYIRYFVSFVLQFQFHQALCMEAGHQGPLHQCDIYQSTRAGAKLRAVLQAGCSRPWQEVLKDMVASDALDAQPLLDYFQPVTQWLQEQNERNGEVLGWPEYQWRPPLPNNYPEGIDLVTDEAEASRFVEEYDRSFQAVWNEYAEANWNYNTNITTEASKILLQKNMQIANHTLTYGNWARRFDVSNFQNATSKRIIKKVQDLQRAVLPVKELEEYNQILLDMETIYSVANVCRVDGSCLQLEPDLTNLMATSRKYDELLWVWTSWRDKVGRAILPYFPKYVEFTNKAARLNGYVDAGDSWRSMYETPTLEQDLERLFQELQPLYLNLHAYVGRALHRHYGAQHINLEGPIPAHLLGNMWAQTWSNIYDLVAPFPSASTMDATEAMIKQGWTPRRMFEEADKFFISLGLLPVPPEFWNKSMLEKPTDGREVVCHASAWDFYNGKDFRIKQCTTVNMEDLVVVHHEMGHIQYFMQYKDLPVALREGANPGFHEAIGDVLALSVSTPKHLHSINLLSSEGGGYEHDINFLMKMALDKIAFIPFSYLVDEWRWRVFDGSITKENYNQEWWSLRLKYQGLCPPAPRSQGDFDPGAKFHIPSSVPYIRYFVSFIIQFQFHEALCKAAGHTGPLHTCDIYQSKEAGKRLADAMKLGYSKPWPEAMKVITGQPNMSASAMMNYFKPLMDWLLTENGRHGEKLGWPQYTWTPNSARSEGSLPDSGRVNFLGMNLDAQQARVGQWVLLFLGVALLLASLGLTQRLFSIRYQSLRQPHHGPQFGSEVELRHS
Type of assay: tissue-based, Lung.

For assay [6], the target named is T4, Cysteinyl leukotriene receptor 1 (Homo sapiens, UniProt Q9Y271). Further: in other assays of this panel Not Active means under 50% inhibition at 10 µM.
T4 sequence (Q9Y271 whole entry): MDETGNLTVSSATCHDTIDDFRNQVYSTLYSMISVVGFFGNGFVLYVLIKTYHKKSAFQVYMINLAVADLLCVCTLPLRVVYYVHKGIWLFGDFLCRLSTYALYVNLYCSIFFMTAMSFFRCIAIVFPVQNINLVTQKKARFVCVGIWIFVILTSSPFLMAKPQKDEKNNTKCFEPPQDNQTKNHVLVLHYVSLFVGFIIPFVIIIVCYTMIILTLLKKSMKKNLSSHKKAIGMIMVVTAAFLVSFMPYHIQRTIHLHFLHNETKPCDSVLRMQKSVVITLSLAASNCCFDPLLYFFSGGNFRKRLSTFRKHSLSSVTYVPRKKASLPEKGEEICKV
Type of assay: cell membranes, Membrane. The settings on record: cho-k1.

In assay [7] the target is Platelet-activating factor receptor (Homo sapiens, UniProt P25105). Put plainly: biochemical. In kind it is tissue-based. The settings on record: for IC50: platelet.
Platelet-activating factor receptor, sequence (P25105 whole entry): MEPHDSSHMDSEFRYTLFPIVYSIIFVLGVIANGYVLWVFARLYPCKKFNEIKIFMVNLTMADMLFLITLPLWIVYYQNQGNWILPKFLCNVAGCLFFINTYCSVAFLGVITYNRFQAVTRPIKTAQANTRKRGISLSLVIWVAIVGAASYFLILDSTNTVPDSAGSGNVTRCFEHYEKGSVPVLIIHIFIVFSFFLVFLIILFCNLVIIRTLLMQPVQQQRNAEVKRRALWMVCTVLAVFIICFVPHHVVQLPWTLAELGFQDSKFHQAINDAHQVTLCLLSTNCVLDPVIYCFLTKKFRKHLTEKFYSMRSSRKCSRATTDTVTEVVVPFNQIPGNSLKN

Matrix metalloproteinase-9, sequence (P14780 whole entry): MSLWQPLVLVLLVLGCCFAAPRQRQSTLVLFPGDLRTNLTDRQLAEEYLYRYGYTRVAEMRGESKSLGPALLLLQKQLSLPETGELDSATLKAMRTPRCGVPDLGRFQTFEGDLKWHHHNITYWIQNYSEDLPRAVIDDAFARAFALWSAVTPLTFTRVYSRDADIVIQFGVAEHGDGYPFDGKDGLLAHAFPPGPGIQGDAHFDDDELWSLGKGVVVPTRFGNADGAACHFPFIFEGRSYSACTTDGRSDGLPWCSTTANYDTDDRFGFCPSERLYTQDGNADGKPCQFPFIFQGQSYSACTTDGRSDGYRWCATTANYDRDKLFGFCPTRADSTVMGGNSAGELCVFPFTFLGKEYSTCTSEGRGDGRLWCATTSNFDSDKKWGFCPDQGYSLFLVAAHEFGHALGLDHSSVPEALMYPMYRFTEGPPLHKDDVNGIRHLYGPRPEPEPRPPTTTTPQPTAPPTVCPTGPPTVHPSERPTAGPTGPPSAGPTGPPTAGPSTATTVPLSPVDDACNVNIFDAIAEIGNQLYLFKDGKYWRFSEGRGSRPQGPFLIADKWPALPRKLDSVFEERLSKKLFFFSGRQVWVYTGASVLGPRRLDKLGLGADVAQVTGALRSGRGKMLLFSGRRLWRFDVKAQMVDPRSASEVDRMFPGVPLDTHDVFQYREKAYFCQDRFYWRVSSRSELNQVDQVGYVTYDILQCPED
Mitogen-activated protein kinase 1, sequence (P28482 whole entry): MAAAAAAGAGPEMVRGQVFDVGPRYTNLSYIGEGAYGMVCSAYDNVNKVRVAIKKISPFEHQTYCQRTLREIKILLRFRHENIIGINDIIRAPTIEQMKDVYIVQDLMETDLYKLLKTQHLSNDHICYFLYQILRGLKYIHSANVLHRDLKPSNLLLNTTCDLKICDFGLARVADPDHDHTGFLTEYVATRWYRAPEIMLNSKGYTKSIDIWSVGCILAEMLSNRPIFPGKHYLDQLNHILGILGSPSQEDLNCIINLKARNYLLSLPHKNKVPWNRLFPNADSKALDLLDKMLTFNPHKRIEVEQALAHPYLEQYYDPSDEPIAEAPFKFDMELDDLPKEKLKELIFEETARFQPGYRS

Take `CCc1oc2ccccc2c1C(=O)c1cc(Br)c(O)c(Br)c1` [BENZBROMARONE]: the pIC50 in assay [1] was 5.71. Also, the IC50 result in assay [2], in assay [3], in assay [4], in assay [5], in assay [6] and in assay [7] was “Not Active” in each case.

As to `O=c1cc(-c2ccccc2)oc2ccc3ccccc3c12` [BETA-NAPHTHOFLAVONE], the IC50 entry in assay [1], in assay [2], in assay [3], in assay [4], in assay [5] and in assay [6] was “Not Active” throughout. In assay [7], the IC50 entry was “Not Active”.

`CC(C)C[C@H]1C(=O)N2CCC[C@H]2[C@]2(O)O[C@](NC(=O)[C@@H]3C=C4c5cccc6[nH]c(Br)c(c56)C[C@H]4N(C)C3)(C(C)C)C(=O)N12` [BROMOCRIPTINE]: the IC50 result in assay [1], in assay [2], in assay [3], in assay [4], in assay [5] and in assay [6] was “Not Active” in each case. For the same compound, the IC50 entry in assay [7] is on record as “Not Active”.

As for `CS(=O)(=O)OCCCCOS(C)(=O)=O` [BUSULFAN], the IC50 entry in assay [1], in assay [3], in assay [4], in assay [5], in assay [6] and in assay [7] was “Not Active” each time. In addition, in assay [2], the negative logarithm of the IC50 (pIC50) was 5.28.

For the compound `O=C(/C=C/c1ccc(O)c(O)c1)OCCc1ccccc1` [CAFFEIC ACID PHENETHYL ESTER], in assay [1], the negative-log IC50 (pIC50) is 6.16. Further, the IC50 result in assay [2], in assay [3], in assay [4], in assay [5], in assay [6] and in assay [7] was “Not Active” throughout.

In the case of `COc1cc(CNC(=O)CCCC/C=C/C(C)C)ccc1O` [CAPSAICIN], the IC50 result in assay [1], in assay [2], in assay [3], in assay [4], in assay [5] and in assay [6] was “Not Active” each time. Further, the IC50 result in assay [7] is “Not Active”.

As to `NC(=O)N1c2ccccc2C=Cc2ccccc21` [CARBAMAZEPINE], the IC50 result in assay [1], in assay [2], in assay [3], in assay [4], in assay [5] and in assay [6] was “Not Active” in each case. In addition, in assay [7], the IC50 result is listed as “Not Active”.

For `CCOC(=O)n1ccn(C)c1=S` [CARBIMAZOLE], the IC50 result in assay [1], in assay [2], in assay [3], in assay [4], in assay [5] and in assay [6] was “Not Active” each time. In addition, the IC50 entry in assay [7] is given as “Not Active”.

`Oc1ccccc1O` [CATECHOL]: the IC50 entry in assay [1], in assay [3], in assay [4], in assay [5], in assay [6] and in assay [7] was “Not Active” each time. Besides, in assay [2], the pIC50 was 4.63.

Turning to `CO[C@@]1(NC(=O)CSCC#N)C(=O)N2C(C(=O)O)=C(CSc3nnnn3C)CS[C@@H]21` [CEFMETAZOLE], the IC50 result in assay [1], in assay [2], in assay [3], in assay [4], in assay [5] and in assay [6] was “Not Active” throughout. Also, in assay [7], the IC50 entry is given as “Not Active”.

Consider `CN(C(=O)CCCOc1ccc2[nH]c(=O)ccc2c1)C1CCCCC1` [CILOSTAMIDE], for which the IC50 entry in assay [1], in assay [2], in assay [3], in assay [4], in assay [5] and in assay [6] was “Not Active” each time. In addition, the pIC50 in assay [7] (read-out: IC50) is 5.43. For the same compound, the pKi in assay [7] (read-out: Ki) is 5.72.

`CC(C)(Oc1ccc(C2CC2(Cl)Cl)cc1)C(=O)O` (stereo not drawn) [CIPROFIBRATE]: the IC50 entry in assay [1], in assay [2], in assay [3], in assay [4], in assay [5] and in assay [6] was “Not Active” each time. Further, the IC50 entry in assay [7] is given as “Not Active”.

For the compound `Nc1nc(Cl)nc2c1ncn2[C@H]1C[C@H](O)[C@@H](CO)O1` [CLADRIBINE], the IC50 result in assay [1], in assay [2], in assay [3], in assay [4], in assay [5] and in assay [6] was “Not Active” in each case. Further, in assay [7], the IC50 entry is “Not Active”.

With `CC[C@H]1OC(=O)[C@H](C)[C@@H](O[C@H]2C[C@@](C)(OC)[C@@H](O)[C@H](C)O2)[C@H](C)[C@@H](O[C@@H]2O[C@H](C)C[C@H](N(C)C)[C@H]2O)[C@](C)(OC)C[C@@H](C)C(=O)[C@H](C)[C@@H](O)[C@]1(C)O` [CLARITHROMYCIN], the IC50 result in assay [1], in assay [2], in assay [3], in assay [4], in assay [5] and in assay [6] was “Not Active” throughout. Further, the IC50 entry in assay [7] is reported as “Not Active”.

Consider `CCC[C@@H]1C[C@@H](C(=O)N[C@@H]([C@H]2O[C@H](SC)[C@H](O)[C@@H](O)[C@H]2O)[C@H](C)Cl)N(C)C1` [CLINDAMYCIN], for which the IC50 result in assay [1], in assay [2], in assay [3], in assay [4], in assay [5] and in assay [6] was “Not Active” in each case. Moreover, the IC50 result in assay [7] is listed as “Not Active”.

Turning to `O=C(O)c1cc(=O)c2c(OCC(O)COc3cccc4oc(C(=O)O)cc(=O)c34)cccc2o1` [CROMOLYN], the IC50 result in assay [1], in assay [2], in assay [3], in assay [4], in assay [5] and in assay [6] was “Not Active” each time. Besides, in assay [7], the IC50 entry was “Not Active”.

One may read the pIC50 as the IC50 on a negative log10 scale, so that one unit is a factor of ten. By pKi is commonly meant the negative decadic logarithm of the Ki, by convention in mol/L.
